According to paper PMC8874984, “Improved Cell-Potent and Selective Peptidomimetic Inhibitors of Protein N-Terminal Methyltransferase 1” (Molecules, 2022):
Read-outs that look alike come from different tables or passages of the source.

Columns and labels:
me3-RCC1 [1] = test system: me3-RCC1; parameters: method as in PMID 33738076; conditions: Figure 1, previously reported inhibitors; read-out: Celluar IC50; cited from earlier work
NTMT1 [2] = target: T1, NTMT1 (Homo sapiens, UniProt Q9BV86); conditions: cited from earlier work
T1 construct: made in house
T1 sequence (Q9BV86 1-223): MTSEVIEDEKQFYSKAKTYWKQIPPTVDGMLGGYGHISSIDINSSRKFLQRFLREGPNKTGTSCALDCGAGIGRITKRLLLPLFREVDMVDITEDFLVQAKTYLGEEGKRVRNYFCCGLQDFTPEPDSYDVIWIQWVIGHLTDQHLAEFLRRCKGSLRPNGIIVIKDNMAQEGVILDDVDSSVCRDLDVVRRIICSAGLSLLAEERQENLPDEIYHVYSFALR

[3] = test system: NTMT1 knockout HCT116 cells; assay: Cytotoxicity by alamarBlue assay in NTMT1 knockout HCT116 cells; assay type: cell-based, human; conditions: wild-type and NTMT1 knockout HCT116 cells
[4] = Cytotoxicity by alamarBlue assay in HCT116 cells; conditions: human, GI50, HCT116 cells
Method: (§1) Cell viability assay. HCT116 cells were seeded as 5,000 cells/well on 96-well plates in the
(§2) presence of 1x PBS or DC541 at different concentrations for 24, 48, or 72 hours. Cell viability
(§3) was assessed using 0.2 mg/ml resazurin solutions prepared from resazurin sodium salt (Acros
(§4) OrganicsTM, AC418900050) dissolved in sterile 1 x PBS. Then, the cells were incubated with
(§5) 10 µl resazurin solution (10% of cell culture volume) for four hours at 37 °C. The fluorescence
(§6) Cell viability was calculated as 100% × (fluorescence of treated cells – fluorescence of
(§7) background controls) / (fluorescence of 1x PBS controls – fluorescence of background

NTMT1 [5] = target: T1, NTMT1; assay: SAHH-coupled fluorescence assay of NTMT1 inhibition; assay type: biochemical; conditions: for Expt. ΔGbind ± σ: estimated from the IC50 values in Table 1; for IC50/IC50 (DC541): ratio of NTMT1 IC50 to that of DC541
[6] = test system: cellular α-N-terminal methylation level in HCT116 cells; assay: Cellular N-terminal methylation level, Western blot with anti-me3-SPK antibody; assay type: cell-based; conditions: Homo sapiens, HCT-116, cellular N-terminal methylation inhibition, n = 2
Method: Next, we investigated the effects of all peptidomimetic inhibitors with GI50 > 100 µM and IC50 < 1 µM on the cellular α-N-terminal methylation level in HCT116 cells (Table 2). Then, we examined the top three cell-potent peptidomimetic inhibitors 1d–f on the dose-response of inhibition of cellular N-terminal methylation levels. […] As the biochemical IC50 value of GD562 was about three-fold higher than DC541, we proposed that the improved cellular inhibition of GD562 may be attributed to its increased permeability with higher cLogP than DC541.
Figure 5 Inhibition of cellular N-terminal methylation by peptidomimetic inhibitors in HCT116 cells. Representative Western blot results of the effects of GD562 (A), GD564 (B), and GD573 (C) on the cellular methylation level. Image quantification was performed using ImageJ software (NIH). […] All experiments were performed in duplicate (n = 2). […]
Cellular N-methylation level.
The gel was transferred to a
system. Image quantification was done using ImageJ software (NIH). All bands were compared
OrganicsTM, AC418900050) dissolved in sterile 1 x PBS. […]

in vitro [7] = conditions: PAMPA
G9a = target: T2, G9a (Homo sapiens, UniProt Q96KQ7); assay: In-house selectivity study, fluorescence assay: G9a; assay type: biochemical; conditions: read-out: inhibition of enzyme activity
T2 sequence (Q96KQ7 1-1210): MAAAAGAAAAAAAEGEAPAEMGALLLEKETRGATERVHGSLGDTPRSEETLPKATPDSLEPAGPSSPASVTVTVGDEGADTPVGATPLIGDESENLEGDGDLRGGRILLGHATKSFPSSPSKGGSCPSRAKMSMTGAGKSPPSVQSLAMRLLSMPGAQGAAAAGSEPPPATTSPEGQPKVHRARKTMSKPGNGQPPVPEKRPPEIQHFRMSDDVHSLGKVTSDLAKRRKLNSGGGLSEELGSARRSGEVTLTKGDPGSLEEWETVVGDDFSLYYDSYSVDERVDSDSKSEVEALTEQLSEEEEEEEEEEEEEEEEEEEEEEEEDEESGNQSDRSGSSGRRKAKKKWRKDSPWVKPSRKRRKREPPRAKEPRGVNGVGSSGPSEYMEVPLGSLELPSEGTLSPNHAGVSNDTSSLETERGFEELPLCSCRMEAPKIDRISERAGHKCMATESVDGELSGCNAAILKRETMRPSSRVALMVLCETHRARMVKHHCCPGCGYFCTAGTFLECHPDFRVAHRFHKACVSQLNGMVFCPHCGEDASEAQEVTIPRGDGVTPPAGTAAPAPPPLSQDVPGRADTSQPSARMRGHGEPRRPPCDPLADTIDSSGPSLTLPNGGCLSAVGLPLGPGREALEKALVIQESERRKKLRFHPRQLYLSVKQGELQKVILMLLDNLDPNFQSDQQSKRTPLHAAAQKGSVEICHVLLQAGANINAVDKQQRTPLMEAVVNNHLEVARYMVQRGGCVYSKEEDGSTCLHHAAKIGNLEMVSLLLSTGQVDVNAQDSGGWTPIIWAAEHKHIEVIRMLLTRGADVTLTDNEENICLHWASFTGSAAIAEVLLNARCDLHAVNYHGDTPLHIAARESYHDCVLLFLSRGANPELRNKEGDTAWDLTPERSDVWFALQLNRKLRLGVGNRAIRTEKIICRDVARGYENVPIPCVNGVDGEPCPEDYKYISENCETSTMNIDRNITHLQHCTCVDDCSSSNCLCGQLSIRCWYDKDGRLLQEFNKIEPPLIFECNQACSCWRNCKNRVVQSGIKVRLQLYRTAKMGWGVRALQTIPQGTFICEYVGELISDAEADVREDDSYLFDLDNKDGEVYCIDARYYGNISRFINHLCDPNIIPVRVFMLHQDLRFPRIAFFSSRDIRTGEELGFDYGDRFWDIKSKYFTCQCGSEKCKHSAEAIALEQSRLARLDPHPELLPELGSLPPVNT

TbPRMT7 = TbPRMT7 (Trypanosoma brucei brucei, UniProt Q582G4); assay: biochemical; conditions: read-out: inhibition of enzyme activity
me3-RCC1 [8] = assay: Cellular me3-RCC1 level in HCT116 cells; assay type: cell-based, human
NNMT = target: T3, NNMT (Homo sapiens, UniProt P40261); assay: In-house selectivity study, fluorescence assay: NNMT; assay type: biochemical; conditions: read-out: inhibition of enzyme activity
T3 construct: made in house
T3 sequence (P40261 1-264): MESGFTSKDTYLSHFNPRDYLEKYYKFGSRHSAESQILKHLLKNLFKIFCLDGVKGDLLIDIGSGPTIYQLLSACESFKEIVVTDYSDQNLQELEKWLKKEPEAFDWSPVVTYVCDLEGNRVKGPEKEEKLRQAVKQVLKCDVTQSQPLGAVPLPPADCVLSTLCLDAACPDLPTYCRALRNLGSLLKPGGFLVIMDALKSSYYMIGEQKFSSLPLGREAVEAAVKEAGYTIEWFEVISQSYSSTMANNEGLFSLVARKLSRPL

SETD7 = target: T4, SETD7 (Homo sapiens, UniProt Q8WTS6); assay: In-house selectivity study, fluorescence assay: SETD7; assay type: biochemical; conditions: read-out: inhibition of enzyme activity
T4 construct: made in house
T4 sequence (Q8WTS6 1-366): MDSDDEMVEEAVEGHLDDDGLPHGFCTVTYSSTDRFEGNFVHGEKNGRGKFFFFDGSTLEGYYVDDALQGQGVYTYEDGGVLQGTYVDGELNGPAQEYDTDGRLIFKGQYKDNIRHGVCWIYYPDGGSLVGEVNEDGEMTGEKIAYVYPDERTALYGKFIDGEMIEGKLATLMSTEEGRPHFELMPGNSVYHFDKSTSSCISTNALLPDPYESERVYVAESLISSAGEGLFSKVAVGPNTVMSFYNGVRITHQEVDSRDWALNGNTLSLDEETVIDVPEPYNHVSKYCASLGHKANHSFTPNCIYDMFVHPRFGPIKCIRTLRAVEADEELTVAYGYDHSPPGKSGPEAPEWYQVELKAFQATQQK

PRMT1 = target: T5, PRMT1 (Homo sapiens, UniProt Q99873); assay: In-house selectivity study, fluorescence assay: PRMT1; assay type: biochemical; conditions: read-out: inhibition of enzyme activity
T5 construct: made in house

SAHH = SAHH (Homo sapiens, UniProt P23526); assay: In-house selectivity study, fluorescence assay: coupling enzyme SAHH; assay type: biochemical; conditions: n = 2
Method: Figure 6 In-house selectivity studies of GD562. The compound was tested at 100, 30, and 10 µM (n = 2). Both SAM and substrate are at their Km values.

me3-SET = assay: Cellular me3-SET level in HCT116 cells; assay type: cell-based, human
in vitro [9] = conditions: human
Method: as §1, §2, §3, §4, §5, §6, §7

[10] = Parallel Artificial Membrane Permeability Assay (PAMPA)
[11] = SAHH-coupled fluorescence assay, n = 2, mean ± SD, read-out: IC50

Sequence of TbPRMT7 (Q582G4 whole entry): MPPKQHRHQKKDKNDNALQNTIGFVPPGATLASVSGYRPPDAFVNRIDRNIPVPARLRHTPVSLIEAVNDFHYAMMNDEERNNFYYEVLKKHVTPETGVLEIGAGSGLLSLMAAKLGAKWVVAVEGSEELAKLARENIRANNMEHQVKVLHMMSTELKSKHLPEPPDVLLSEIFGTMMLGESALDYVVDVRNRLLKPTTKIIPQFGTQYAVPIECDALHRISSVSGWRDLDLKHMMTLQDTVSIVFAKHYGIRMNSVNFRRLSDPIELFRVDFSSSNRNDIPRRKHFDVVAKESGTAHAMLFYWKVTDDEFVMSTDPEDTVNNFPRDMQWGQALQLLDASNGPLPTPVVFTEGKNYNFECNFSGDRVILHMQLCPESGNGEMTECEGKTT
Sequence of SAHH (P23526 whole entry, species assumed): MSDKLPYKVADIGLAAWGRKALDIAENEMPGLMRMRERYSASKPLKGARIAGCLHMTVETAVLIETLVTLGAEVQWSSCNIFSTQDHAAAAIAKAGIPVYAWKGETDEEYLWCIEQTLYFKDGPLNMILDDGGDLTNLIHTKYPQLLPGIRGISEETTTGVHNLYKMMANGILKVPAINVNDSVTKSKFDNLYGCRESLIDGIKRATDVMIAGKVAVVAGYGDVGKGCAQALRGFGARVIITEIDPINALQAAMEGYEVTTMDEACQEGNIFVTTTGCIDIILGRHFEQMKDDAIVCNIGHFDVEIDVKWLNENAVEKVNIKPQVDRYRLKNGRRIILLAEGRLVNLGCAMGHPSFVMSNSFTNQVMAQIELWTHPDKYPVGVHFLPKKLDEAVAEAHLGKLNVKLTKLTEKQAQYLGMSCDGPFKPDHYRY
T5 sequence (Q99873 whole entry, species assumed): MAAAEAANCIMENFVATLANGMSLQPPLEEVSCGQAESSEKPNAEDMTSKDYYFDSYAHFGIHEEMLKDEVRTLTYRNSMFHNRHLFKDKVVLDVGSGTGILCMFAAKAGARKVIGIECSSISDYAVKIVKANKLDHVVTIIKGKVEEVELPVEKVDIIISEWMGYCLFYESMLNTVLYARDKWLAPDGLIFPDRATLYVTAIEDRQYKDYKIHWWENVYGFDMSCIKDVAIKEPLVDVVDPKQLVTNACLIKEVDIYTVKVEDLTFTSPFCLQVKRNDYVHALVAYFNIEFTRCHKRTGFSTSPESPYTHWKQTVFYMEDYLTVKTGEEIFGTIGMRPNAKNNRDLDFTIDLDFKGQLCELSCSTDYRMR

Structure (SMILES) | GI50 [4] [µM] | IC50 (NTMT1 [5]; [11]) [µM] | Expt. ΔGbind ± σ (NTMT1 [5]) [kcal/mol] | IC50/IC50 (DC541) (NTMT1 [5]) | IC50 [6] [µM] | Papp (in vitro [7]) [×10⁻⁶ cm/s] | other results
NCCCC[C@H](NC(=O)[C@@H]1CCCN1C(=O)Cc1ccc(O)cc1)C(=O)N[C@@H](CCCN=C(N)N)C(N)=O [BM30] | – | – | – | – | – | – | IC50 (me3-RCC1 [1]): > 1000 µM; selectivity for NTMT1/2 among a panel of 41 methyltransferases (NTMT1 [2]): over 100 fold; IC50 (NTMT1 [2]; previously reported inhibitor): 0.89 ± 0.1 µM
NCCCCC(NC(=O)C1CCCN1C(=O)Cc1cccc2ccccc12)C(=O)Nc1cccc(Br)c1 (stereo not shown) [Compound 1a] | < 70 | 0.17 ± 0.008 | -9.24 ± 0.04 | 0.50 | – | – | GI50 in NTMT1 knockout versus wild-type HCT116 cells [3]: comparable GI50 value
NCCCCC(NC(=O)C1CCCN1C(=O)Cc1cccc2ccccc12)C(=O)Nc1ccc(Br)cc1 (stereo not shown) [Compound 1b] | < 70 | 0.18 ± 0.007 | -9.20 ± 0.03 | 0.53 | – | – | –
NCCCCC(NC(=O)C1CCCN1C(=O)Cc1cccc2ccccc12)C(=O)NCc1ccccc1 (stereo not shown) [Compound 1c] | > 300 | 0.91 ± 0.03 | -8.24 ± 0.03 | 2.7 | < 300 | 0.24 ± 0.06 | –
NCCCCC(NC(=O)C1CCCN1C(=O)Cc1cccc2ccccc12)C(=O)NCCc1ccccc1 (stereo not shown) [Compound 1d] | > 300 | – | – | – | ~50 | 0.26 ± 0.06 | inhibition at 100 µM (G9a): ≤ 50%; inhibition at 100 µM (TbPRMT7): ≤ 50%; increase in cellular inhibition activity on me3-RCC1 compared to DC541 (me3-RCC1 [8]): over 2 fold; IC50 (me3-RCC1 [8]; Homo sapiens, HCT-116): ~50 µM; inhibition at 100 µM (NNMT): ≤ 50%; inhibition at 100 µM (SETD7): ≤ 50%; inhibition at 100 µM (PRMT1): ≤ 50%; inhibition at 100 µM (SAHH): ≤ 50%; increase of inhibitory activity for the SET protein compared with DC541 (me3-SET): over 6 fold; IC50 (me3-SET; Homo sapiens, HCT-116): ~50 µM
NCCCCC(NC(=O)C1CCCN1C(=O)Cc1cccc2ccccc12)C(=O)NCCCc1ccccc1 (stereo not shown) [Compound 1e] | – | – | -8.44 ± 0.01 | 1.9 | ~100 | – | GI50 (in vitro [9]): > 300 µM; Papp [10]: 0.17 ± 0.08 ×10⁻⁶ cm/s; IC50 (NTMT1 [5]): 0.65 ± 0.01 µM
